Results as given in patent publication US4304861A, “Process of producing antibiotic SM-173B with Streptomyces chromofuscus” (Hoffmann-La Roche Inc., priority 1977, dated 1981).
In brackets after ≈: the same amount, converted by molar mass.

What was measured:
[1] = Acidity (physico-chemical properties); type: physicochemical
[2] = tested on: Echerichia coli; experiment: Minimum Inhibitory Concentration (MIC), antibacterial spectrum; type: cell-based
From the text: (§1) The antibacterial spectrum is evident from the following Table:
(§2) Minimum Inhibitory Concentration (MIC)
(§3) Test organism MIC (μg/ml)

[3] = tested on: Micrococcus flavus; experiment: as above; type: cell-based
From the text: as §1, §2, §3

[4] = tested on: Staphylococcus epidermidis; experiment: as above; type: cell-based
From the text: as §1, §2, §3

[5] = tested on: Bacillus cereus; experiment: as above; type: cell-based
From the text: as §1, §2, §3

[6] = tested on: Aspergillus niger; experiment: as above; type: cell-based
From the text: as §1, §2, §3

[7] = tested on: Mycobacterium rhodochrous; experiment: as above; type: cell-based
From the text: as §1, §2, §3

[8] = tested on: Bacillus subtilis; experiment: as above; type: cell-based
From the text: as §1, §2, §3

[9] = tested on: Mycobacterium smegmatis; experiment: as above; type: cell-based; conditions: Mycolicibacterium smegmatis
From the text: as §1, §2, §3

[10] = tested on: Sarcina lutea; experiment: as above; type: cell-based; conditions: Micrococcus luteus
From the text: as §1, §2, §3

[11] = tested on: Penicillium citrinum; experiment: as above; type: cell-based
From the text: as §1, §2, §3

[12] = tested on: Mycobacterium avium; experiment: as above; type: cell-based
From the text: as §1, §2, §3

[13] = tested on: Staphylococcus aureus 209P; experiment: as above; type: cell-based
From the text: as §1, §2, §3

[14] = Toxicity, intraperitoneal administration to mice; conditions: mouse, in vivo, ip
Description: The LD50 is greater than 200 mg/kg in the case of intraperitoneal administration to mice.

[15] = Solubility; type: physicochemical
[16] = tested on: mycobacteria; experiment: Antibiotic activity (summary of MIC table); type: cell-based
From the text: as §1, §2, §3

[17] = tested on: gram-positive bacteria; experiment: Antibiotic activity (summary of MIC table); type: cell-based; conditions: a large number of gram-positive bacteria
From the text: as §1, §2, §3

COC1Cc2c(cc3c(c2O)C(=O)c2c(O)cccc2C3=O)C(=O)C1(C)O (stereo not drawn) [Antibiotic SM-173B]
acidity [1]: weakly acid
MIC [2]: 100 µg/mL (≈ 271 µM)
MIC [3]: 6.25 µg/mL (≈ 17 µM)
MIC [4]: 3.13 µg/mL (≈ 8.5 µM)
MIC [5]: 6.26 µg/mL (≈ 17 µM)
MIC [6]: 100 µg/mL (≈ 271 µM)
MIC [7]: 3.13 µg/mL (≈ 8.5 µM)
MIC [8]: 6.25 µg/mL (≈ 17 µM)
MIC [9]: 3.13 µg/mL (≈ 8.5 µM)
MIC [10]: 12.5 µg/mL (≈ 33.9 µM)
MIC [11]: 100 µg/mL (≈ 271 µM)
MIC [12]: 6.25 µg/mL (≈ 17 µM)
MIC [13]: 6.25 µg/mL (≈ 17 µM)
LD50 [14]: > 200 mg/kg
Solubility ([15]; in methanol, ethanol, butanol, acetone, chloroform, ethyl acetate): Soluble
Solubility ([15]; in n-hexane): poorly soluble
Solubility ([15]; in petroleum ether): insoluble
Solubility ([15]; in water): insoluble
Solubility ([15]; in water under alkaline conditions): Soluble
antibiotic activity [16]: antibiotically active
antibiotic activity [17]: antibiotically active
